The supplement of paper PMC11061612

What was measured:
Experiment in all cases: combination Emax (second highest fraction inhibited in the dose matrix, 72 h); higher = more inhibition; extreme values may be limits of the assay
786-0 (Kidney Carcinoma) = system: 786-0 (Kidney Carcinoma)
Outline: (§1)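 After 24 hours at 37°C and 5% CO2 in 1536-well plates, cells in DMEM/F12 or RPMI plus 10% FBS received two-drug dose matrices for 72 hours. Viability came from CellTiter-Glo 2.0 luminescence and was scaled as inhibition, anchored at 0 by vehicle wells and at 1 by blank wells. Combination Emax is taken as the second-highest inhibition in the matrix, and Bliss excess as the observed combination effect less EA + EB − EA·EB, with EA and EB the single-agent effects.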

[1] = system: BALL-1 (B-Lymphoblastic Leukemia)
Outline: as §1

[2] = system: Becker (Low Grade Glioma)
Outline: as §1

[3] = system: CML-T1 (Chronic Myelogenous Leukemia)
Outline: as §1

[4] = system: COLO-684 (Endometrial Carcinoma)
Outline: as §1

[5] = system: Calu-6 (Non-Small Cell Lung Carcinoma)
Outline: as §1

[6] = system: Caov-3 (Ovarian Carcinoma)
Outline: as §1

[7] = system: FLO-1 (Esophageal Adenocarcinoma)
Outline: as §1

[8] = system: HTC-C3 (Thyroid Gland Carcinoma)
Outline: as §1

[9] = system: KYSE-70 (Esophageal Squamous Cell Carcinoma)
Outline: as §1

[10] = system: LAMA-84 (Chronic Myelogenous Leukemia)
Outline: as §1

[11] = system: NCI-H1155 (Non-Small Cell Lung Carcinoma)
Outline: as §1

[12] = system: NCI-H1563 (Lung Adenocarcinoma)
Outline: as §1

[13] = system: NCI-H1623 (Lung Adenocarcinoma)
Outline: as §1

[14] = system: NCI-H810 (Non-Small Cell Lung Carcinoma)
Outline: as §1

[15] = system: NKM-1 (Acute Myeloid Leukemia)
Outline: as §1

[16] = system: RL95-2 (Endometrial Carcinoma)
Outline: as §1

RT4 (Bladder Carcinoma) = system: RT4 (Bladder Carcinoma)
Outline: as §1

[17] = system: SJRH30 (Rhabdomyosarcoma)
Outline: as §1

[18] = system: SNU-175 (Colorectal Carcinoma)
Outline: as §1

Compound	combination Emax (786-0 (Kidney Carcinoma))	combination Emax [1]	combination Emax [2]	combination Emax [3]	combination Emax [4]	combination Emax [5]	combination Emax [6]	combination Emax [7]	combination Emax [8]	combination Emax [9]	combination Emax [10]	combination Emax [11]	combination Emax [12]	combination Emax [13]	combination Emax [14]	combination Emax [15]	combination Emax [16]	combination Emax (RT4 (Bladder Carcinoma))	combination Emax [17]	combination Emax [18]
CCN(CCO)CCCOc1ccc2c(Nc3cc(CC(=O)Nc4cccc(F)c4)[nH]n3)ncnc2c1 [AZD2811] + C[C@@H]1COCCN1C2=NC(=NC(=C2)C3(CC3)[S@](=N)(=O)C)C4=C5C=CNC5=NC=C4 [AZD6738] (first compound max 1 µM, 7x7, partner max 10 µM)	0.714	0.984	0.586	0.934	0.748	0.767	0.841	0.6	0.858	0.313	0.97	0.787	0.206	0.6	0.738	0.879	0.773	0.429	0.839	0.578
Cc1cc2ncnn2cc1Nc1ncc2c(n1)n(C1CCOCC1)c(=O)n2C [AZD7648] + CCN(CCO)CCCOc1ccc2c(Nc3cc(CC(=O)Nc4cccc(F)c4)[nH]n3)ncnc2c1 [AZD2811] (first compound max 10 µM, 7x7, partner max 1 µM)	0.215	0.53	0.214	0.49	0.302	0.317	0.885	0.406	0.202	0.238	0.336	0.475	0.555	0.28	0.643	0.605	0.595	0.491	0.24	0.646
Cc1cc2ncnn2cc1Nc1ncc2c(n1)n(C1CCOCC1)c(=O)n2C [AZD7648] + C=CCn1c(=O)c2cnc(Nc3ccc(N4CCN(C)CC4)cc3)nc2n1-c1cccc(C(C)(C)O)n1 [AZD1775] (first compound max 10 µM, partner max 1 µM)	0.595	0.983	0.311	0.941	0.722	0.779	0.727	0.802	0.383	0.566	0.953	0.485	0.629	0.505	0.881	0.884	0.408	0.446	0.833	0.53
COc1cccc2c1C(=O)c1c(O)c3c(c(O)c1C2=O)C[C@@](O)(C(=O)CO)C[C@@H]3O[C@H]1C[C@H](N)[C@H](O)[C@H](C)O1 [Doxorubicin] + Cc1cc2ncnn2cc1Nc1ncc2c(n1)n(C1CCOCC1)c(=O)n2C [AZD7648] (first compound max 1 µM, 7x7, partner max 10 µM)	0.82	0.99	0.555	1	0.627	0.516	0.826	0.927	0.427	0.502	0.822	0.916	0.58	0.647	0.756	0.988	0.376	0.867	0.925	0.823
CC1(C)CCC(CN2CCN(c3ccc(C(=O)NS(=O)(=O)c4ccc(NCC5CCOCC5)c([N+](=O)[O-])c4)c(Oc4cnc5[nH]ccc5c4)c3)CC2)=C(c2ccc(Cl)cc2)C1 [Venetoclax] + C[C@@H](Nc1cc(F)cc(F)c1)c1cc(C(=O)N(C)C)cc2c(=O)cc(N3CCOCC3)oc12 [AZD8186] (first compound max 1 µM, 7x7, partner max 3 µM)	0.267	1	0.418	0.967	0.529	0.125	0.797	0.543	0.149	0.0812	0.313	0.422	0.431	0.378	0.0592	1	0.106	0.174	0.0499	0.171
CN(C)CCCOc1ccc(-c2ccc3ncc4c(c3c2)n(C2CCOCC2)c(=O)n4C)cn1 [AZD0156] + C=CCn1c(=O)c2cnc(Nc3ccc(N4CCN(C)CC4)cc3)nc2n1-c1cccc(C(C)(C)O)n1 [AZD1775] (first compound max 1 µM, partner max 1 µM)	0.536	0.977	0.177	0.917	0.688	0.722	0.65	0.805	0.351	0.538	0.942	0.342	0.367	0.311	0.889	0.853	0.429	0.314	0.809	0.405
